This note sets out measurements from ChEMBL document CHEMBL1201862, “PubChem BioAssay data set” (2004).

The term GI50 denotes the concentration at which growth is held to half of that of the control.

Among the test systems are MDA-MB-435; SK-MEL-28; NCI-H226; HL-60; TK-10; MDA-MB-231; A549; IGROV-1; OVCAR-5; SF-268; Malme-3M; BT-549; DU-145; SR; U-251; SK-MEL-5; HCT-15; SN12C; A498; KM12.
Holding throughout (assay): DTP human tumour cell line panel, 48 h

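Tested at 5 concentrations; 48 h exposure; 96-well plates; endpoints linearly interpolated, else capped at highest concentration. GI50: concentration for 50% inhibition of growth.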 Activity calls are given as the source filed them. Rule as the data show it: active = GI50 up to about 1.1 µM and inactive = higher. Some results are limits rather than exact numbers.

With `COc1ccc(C(=O)/C=C/c2ccncc2)cc1OC`, the GI50 with MDA-MB-435 was 14.8 µM (inactive); in the test on SK-MEL-28, 17.3 µM (inactive); with NCI-H226, 15.5 µM (inactive); with HL-60 it was 2.04 µM (inactive); in the test on TK-10 it was 16.4 µM (inactive); in the test on MDA-MB-231, 12 µM (inactive). In addition, the GI50 in the test on A549 was 15.7 µM (inactive); in the test with IGROV-1, 12.9 µM (inactive); with OVCAR-5, 14.3 µM (inactive); with SF-268, 13.7 µM (inactive); in the test on Malme-3M it was 18.3 µM (inactive); with BT-549 it was 6.22 µM (inactive). Further, the GI50 was 17.7 µM (inactive) in the test with DU-145; 6.49 µM (inactive) in the test with SR; 11.2 µM (inactive) in the test with U-251; 16.4 µM (inactive) in the test with SK-MEL-5; 15.4 µM in the test on HCT-15; 15.8 µM (inactive) with SN12C. Besides, the GI50 in the test on A498 is 17.1 µM (inactive).

Turning to `COC(OC)C1(c2ccccc2)Oc2ccccc2C1=O` (centres undefined), the GI50 in the test with MDA-MB-435, in the test with SK-MEL-28, in the test on NCI-H226, in the test on HL-60, in the test on TK-10 and in the test on MDA-MB-231 was > 100 µM (inactive) throughout. For the same compound, the GI50 with A549, in the test on IGROV-1, in the test on OVCAR-5, in the test with KM12, with SF-268 and with Malme-3M was > 100 µM (inactive) each time. The GI50 with BT-549 was 85.9 µM (inactive); with DU-145, > 100 µM (inactive); in the test on SR, > 100 µM (inactive); in the test with U-251 it was > 100 µM (inactive); in the test with SK-MEL-5, 65.6 µM (inactive); in the test with HCT-15 it was greater than 100 µM. Moreover, the GI50 in the test on SN12C and in the test on A498 was > 100 µM (inactive) throughout.

Consider `CCN(CC)C1Oc2cc3c(cc2C(c2cc(OC)c(O)c(OC)c2)C1C)OCO3` (centres undefined), for which the GI50 is 2.14 µM (inactive) in the test with MDA-MB-435; 14.2 µM (inactive) with SK-MEL-28; 10.8 µM (inactive) in the test on NCI-H226; 2.69 µM (inactive) with HL-60; 24.9 µM (inactive) in the test with TK-10; 18.8 µM (inactive) with MDA-MB-231. Further, the GI50 with A549 is 11.7 µM (inactive); in the test on IGROV-1, 9.98 µM (inactive); in the test on OVCAR-5 it was 14.2 µM (inactive); in the test with KM12, 4.44 µM (inactive); in the test on SF-268, 16.3 µM (inactive); in the test with Malme-3M, 3.55 µM (inactive). In addition, the GI50 in the test with BT-549 is 6.95 µM (inactive); with DU-145 it was 29.9 µM (inactive); in the test on SR it was 4.57 µM (inactive); in the test on U-251, 10.5 µM (inactive); in the test with SK-MEL-5 it was 3.63 µM (inactive); in the test with HCT-15, 12.6 µM. Besides, the GI50 was 15.2 µM (inactive) with SN12C and 24.6 µM (inactive) in the test on A498.

For the compound `Cc1cc2c(=O)[nH]nc(N)c2c(N)n1`, the GI50 with MDA-MB-435, in the test on SK-MEL-28, with NCI-H226, in the test on HL-60, in the test with TK-10 and in the test on MDA-MB-231 was > 100 µM (inactive) each time. The GI50 with A549, in the test on IGROV-1, in the test with OVCAR-5, with KM12, in the test with SF-268 and with Malme-3M was > 100 µM (inactive) in each case. The GI50 in the test on BT-549 was > 100 µM (inactive); with DU-145, > 100 µM (inactive); with SR, > 100 µM (inactive); in the test with U-251, > 100 µM (inactive); in the test on SK-MEL-5 it was > 100 µM (inactive); in the test on HCT-15, greater than 100 µM. The GI50 in the test on SN12C and in the test with A498 was > 100 µM (inactive) throughout.

As for `C#CCn1c(I)cc2c(c1=O)COC(=O)[C@]2(O)CC`, the GI50 with MDA-MB-435, in the test with SK-MEL-28, with NCI-H226, in the test with HL-60, in the test with TK-10 and in the test on MDA-MB-231 was > 100 µM (inactive) throughout. The GI50 in the test on A549, in the test with IGROV-1, in the test with OVCAR-5, in the test with KM12, with SF-268 and in the test on Malme-3M was > 100 µM (inactive) in each case. In addition, the GI50 with BT-549 was > 100 µM (inactive); in the test on DU-145 it was > 100 µM (inactive); with SR, > 100 µM (inactive); in the test on U-251 it was > 100 µM (inactive); in the test on SK-MEL-5, > 100 µM (inactive); in the test with HCT-15, greater than 100 µM. For the same compound, the GI50 with SN12C and in the test on A498 was > 100 µM (inactive) in each case.

As to `O=C(Nc1ccccc1C(=O)O)C(=Cc1ccccc1O)NC(=O)c1ccccc1`, the GI50 is 32.4 µM (inactive) with MDA-MB-435; > 100 µM (inactive) in the test with SK-MEL-28; 61.2 µM (inactive) with NCI-H226; > 100 µM (inactive) in the test on HL-60; > 100 µM (inactive) with MDA-MB-231; > 100 µM (inactive) in the test with A549. For the same compound, the GI50 with IGROV-1, with OVCAR-5, in the test with KM12, with SF-268, with Malme-3M and in the test on BT-549 was > 100 µM (inactive) in each case. For the same compound, the GI50 in the test with DU-145 is > 100 µM (inactive); in the test on SR, > 100 µM (inactive); with U-251, > 100 µM (inactive); in the test with SK-MEL-5, > 100 µM (inactive); in the test with HCT-15, greater than 100 µM; in the test with SN12C it was > 100 µM (inactive). Besides, the GI50 with A498 is > 100 µM (inactive).

For `CCOC(=O)c1ccc2c(c1)nc1n2C(c2c(F)cccc2F)SC1` (centres undefined), the GI50 in the test on MDA-MB-435 was 30.6 µM (inactive); in the test with SK-MEL-28 it was 97.1 µM (inactive); in the test with NCI-H226, 6.9 µM (inactive); with HL-60, 24.4 µM (inactive); in the test on TK-10, 80.9 µM (inactive); in the test on MDA-MB-231 it was > 100 µM (inactive). Further, the GI50 in the test with A549 was 23.6 µM (inactive); in the test on IGROV-1, 0.951 µM (active); in the test on OVCAR-5, 59.6 µM (inactive); in the test with KM12, 17.1 µM (inactive); in the test with SF-268, 32.8 µM (inactive); in the test with BT-549 it was 80.5 µM (inactive). The GI50 in the test with DU-145 was 30.6 µM (inactive); in the test with SR, 25.6 µM (inactive); with U-251, 55.6 µM (inactive); in the test on SK-MEL-5, 13.1 µM (inactive); with HCT-15, 23.3 µM; with SN12C it was 56.4 µM (inactive). Also, in the test on A498, the GI50 is > 100 µM (inactive).

Regarding `Cc1cn(C2CC(/[N+]([O-])=N\Nc3ccc([N+](=O)[O-])cc3)C(CO)O2)c(=O)[nH]c1=O` (centres undefined), the GI50 with MDA-MB-435 is > 100 µM (inactive); in the test with SK-MEL-28 it was > 100 µM (inactive); in the test with NCI-H226 it was > 100 µM (inactive); in the test on HL-60 it was > 100 µM (inactive); with TK-10 it was > 100 µM (inactive); in the test on MDA-MB-231, 73.3 µM (inactive). In addition, the GI50 was > 100 µM (inactive) in the test with A549; 22.5 µM (inactive) with IGROV-1; > 100 µM (inactive) in the test with OVCAR-5; > 100 µM (inactive) in the test on KM12; > 100 µM (inactive) with SF-268; > 100 µM (inactive) in the test with Malme-3M. The GI50 is > 100 µM (inactive) in the test on BT-549; > 100 µM (inactive) with DU-145; 4.62 µM (inactive) in the test on SR; > 100 µM (inactive) in the test on U-251; greater than 100 µM in the test on HCT-15; > 100 µM (inactive) with SN12C. The GI50 in the test with A498 was > 100 µM (inactive).

Turning to `COC(=O)C1C(OC(=O)c2ccccc2)CC2CCC1N2C(N)=O` (centres undefined), the GI50 with MDA-MB-435, in the test on SK-MEL-28, with NCI-H226, with HL-60, with MDA-MB-231 and in the test with A549 was > 100 µM (inactive) each time. Further, the GI50 in the test with IGROV-1, with OVCAR-5, in the test with KM12, in the test with SF-268, in the test with Malme-3M and in the test with BT-549 was > 100 µM (inactive) each time. For the same compound, the GI50 with DU-145 was > 100 µM (inactive); in the test on SR it was > 100 µM (inactive); in the test with U-251 it was > 100 µM (inactive); with SK-MEL-5, > 100 µM (inactive); in the test on HCT-15, greater than 100 µM; with SN12C, > 100 µM (inactive). Moreover, the GI50 in the test on A498 is > 100 µM (inactive).

On to `Cc1csc(-n2c(C)nc3cc(Cl)ccc3c2=O)n1`, for which the GI50 in the test on MDA-MB-435, with SK-MEL-28, with NCI-H226, in the test with HL-60, with TK-10 and in the test on MDA-MB-231 was > 100 µM (inactive) each time. Further, the GI50 was > 100 µM (inactive) with A549; 33.2 µM (inactive) in the test with IGROV-1; > 100 µM (inactive) in the test with OVCAR-5; > 100 µM (inactive) in the test on KM12; 42.8 µM (inactive) in the test with SF-268; > 100 µM (inactive) in the test with BT-549. The GI50 was > 100 µM (inactive) in the test on DU-145; > 100 µM (inactive) in the test on SR; > 100 µM (inactive) with U-251; 43.1 µM (inactive) with SK-MEL-5; 67.5 µM in the test with HCT-15; > 100 µM (inactive) in the test with SN12C. Besides, the GI50 with A498 was > 100 µM (inactive).
